In the supplement of paper PMC10307832:

Key:
Assay in all cases: relative viability (nuclei count vs DMSO), 5 days (fraction); higher = more cells survive
[1] = compound: O=C(/C=C/c1cccnc1)NCCCCC1CCN(C(=O)c2ccccc2)CC1 [Daporinad] + CCNC(=O)c1noc(-c2cc(C(C)C)c(O)cc2O)c1-c1ccc(CN2CCOCC2)cc1 [Luminespib] (partner 0.01 µM)
How it was run: (§1)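 After 5 days of treatment, lung cancer cells in 1536-well plates were fixed and stained in a single step (final 0.05% Triton X-100, 1% formaldehyde, 1 ug/ml Hoechst) and their nuclei counted on 4× images. Treatment had been applied by pin tool the day after seeding as one drug alone or as a fixed anchor-drug dose with five library-drug doses (not always all listed) in √10 steps. Relative viability is the nuclei count of treated wells divided by that of vehicle wells, and values are medians of duplicate plates.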

[2] = compound: COc1cc(Nc2ncc(F)c(Nc3ccc4c(n3)NC(=O)C(C)(C)O4)n2)cc(OC)c1OC [R406] + N=C(N)NC(=N)NCCc1ccccc1 [Phenformin] (partner 250 µM)
How it was run: as §1

[3] = compound: COc1cc(Nc2ncc(F)c(Nc3ccc4c(n3)NC(=O)C(C)(C)O4)n2)cc(OC)c1OC [R406] + COc1cccc2cc(-c3nc([C@H]4CC[C@H](C(=O)O)CC4)n4ncnc(N)c34)[nH]c12 [OSI-027] (partner 0.5 µM)
How it was run: as §1

[4] = compound: COc1cc(Nc2ncc(F)c(Nc3ccc4c(n3)NC(=O)C(C)(C)O4)n2)cc(OC)c1OC [R406] + C[C@]1(O)C[C@@H](c2nc(-c3ccc4ccc(-c5ccccc5)nc4c3)c3c(N)nccn32)C1 [Linsitinib] (partner 1 µM)
How it was run: as §1

Cell Line	relative viability ([1]; first compound 0.0005 µM)	relative viability ([1]; first compound 0.001581 µM)	relative viability ([1]; first compound 0.005 µM)	relative viability ([1]; first compound 0.01581 µM)	relative viability ([2]; first compound 0.08 µM)	relative viability ([2]; first compound 0.253 µM)	relative viability ([2]; first compound 0.8 µM)	relative viability ([2]; first compound 2.53 µM)	relative viability ([2]; first compound 8 µM)	relative viability ([3]; first compound 0.08 µM)	relative viability ([3]; first compound 0.253 µM)	relative viability ([3]; first compound 0.8 µM)	relative viability ([3]; first compound 2.53 µM)	relative viability ([3]; first compound 8 µM)	relative viability ([4]; first compound 0.08 µM)	relative viability ([4]; first compound 0.253 µM)	relative viability ([4]; first compound 0.8 µM)	relative viability ([4]; first compound 2.53 µM)	relative viability ([4]; first compound 8 µM)
NCI-H1437	1.14	1.16	1.15	1.06	0.301	0.31	0.251	0.29	0.201	0.91	0.86	1.11	0.835	0.593	1.01	1.26	1.24	0.904	0.49
COR-L23	0.615	0.696	0.734	0.199	0.416	0.456	0.501	0.379	0.261	0.704	0.794	0.995	0.527	0.397	0.886	1.04	1.04	0.731	0.405
ABC-1	0.524	0.583	0.527	0.498	0.227	0.225	0.236	0.197	0.201	0.554	0.477	0.531	0.341	0.304	0.863	1.03	0.803	0.594	0.555
SK-MES-1	0.796	0.839	0.874	0.819	0.645	0.685	0.706	0.583	0.349	0.588	0.649	0.714	0.341	0.13	1.04	1.13	1.1	0.569	0.488
PC-14	–	0.106	0.196	0.196	0.602	0.951	0.746	0.332	0.12	0.795	1.11	1.41	0.428	0.121	0.941	1.05	1.01	0.852	0.8
SW 900	0.19	0.159	0.181	0.17	0.53	0.662	0.792	0.189	0.215	0.649	0.874	0.75	0.113	0.247	–	–	–	–	–
A549	–	–	–	–	0.142	0.21	0.122	0.155	0.0767	–	–	–	–	–	0.52	0.659	0.619	0.584	0.418
A-427	0.959	0.953	0.742	0.671	0.382	0.335	0.316	0.171	0.134	0.568	0.523	0.508	0.245	0.238	1.09	1.19	1.17	1.07	0.964
NCI-H1792	–	0.443	0.347	0.604	–	0.377	0.246	0.0941	0.13	0.642	0.772	0.784	0.37	0.378	0.484	0.387	0.744	0.411	0.505
LCLC-97TM1	0.714	0.86	0.768	0.774	0.351	0.407	0.379	0.251	0.351	0.461	0.586	0.618	0.221	0.215	0.192	0.191	0.218	0.172	0.182
NCI-H1703	–	–	–	–	–	–	–	–	–	–	–	–	–	–	0.742	0.859	0.695	0.186	0.139
LCLC-103H	0.988	0.937	1.03	1.06	0.327	0.345	0.419	0.317	0.314	0.419	0.453	0.536	0.362	0.331	1.04	1.2	0.976	1.14	0.792
RERF-LC-KJ	1.22	1.4	1.18	1.07	0.43	0.415	0.41	0.362	0.286	0.609	0.588	0.623	0.432	0.392	0.848	0.846	1.03	0.657	0.695
ChaGo-K-1	0.529	0.508	0.425	0.414	0.491	0.508	0.657	0.42	0.403	0.606	0.565	0.672	0.386	0.471	–	–	–	–	–
Calu-6	–	–	–	–	–	–	–	–	–	–	–	–	–	–	0.937	1.08	1.12	–	0.49
HCC-366	–	–	–	–	0.627	0.622	0.721	0.521	0.254	0.938	1.02	1.04	0.0426	0.117	0.676	0.776	0.87	–	0.0785
NCI-H1648	–	–	–	–	–	–	–	–	–	–	–	0.255	0.249	0.28	–	–	–	–	–
EBC-1	–	–	–	–	–	–	–	–	–	–	–	–	–	–	1.01	1.07	1.13	0.732	0.423
NCI-H1299	–	–	–	–	–	–	–	–	–	–	–	–	–	–	0.979	1.09	1.13	0.93	0.496
NCI-H522	1.28	1.13	0.971	0.846	0.595	0.595	0.619	0.553	0.583	0.681	0.742	0.954	0.501	0.593	–	–	–	–	–
IA-LM	–	–	–	–	–	–	–	–	–	–	–	–	–	–	0.746	0.901	0.921	1.01	0.887
NCI-H2170	0.817	0.722	0.417	0.734	0.405	0.414	0.44	0.316	0.372	0.734	0.654	0.688	0.415	0.648	–	–	–	–	–
NCI-H1623	0.618	0.497	0.472	0.555	0.577	0.624	0.611	0.585	0.554	0.408	0.429	0.398	0.411	0.43	–	–	–	–	–
